From patent publication US9931372B2, “Synthetic apelin fatty acid conjugates with improved half-life” (Novartis AG, priority 2015, dated 2018) come the findings set out here.

Where two headings read alike, the source gives them in different places. Bridge positions count the residues as written; N and C are the ends. Square brackets hold non-standard residues; d marks the D form. Peptide text beside a SMILES is read from it. * marks the point of attachment. PEG24 = NCCOCCOCCOCCOCCOCCOCCOCCOCCOCCOCCOCCOCCOCCOCCOCCOCCOCCOCCOCCOCCOCCOCCOCCOCCC(=O)O; Malonyl(C11H23,(CH2)10COOH) = CCCCCCCCCCCC(CCCCCCCCCCC(=O)O)(C(=O)O)C(=O)*; PEG12 = NCCOCCOCCOCCOCCOCCOCCOCCOCCOCCOCCOCCOCCC(=O)O; pGlu = O=C1CC[C@@H](C(=O)O)N1; PEG4 = NCCOCCOCCOCCOCCC(=O)O; Nle = CCCC[C@H](N)C(=O)O

For one series, the target named is T1, hAPJ (Homo sapiens, UniProt P35414).
T1 sequence (P35414 1-380): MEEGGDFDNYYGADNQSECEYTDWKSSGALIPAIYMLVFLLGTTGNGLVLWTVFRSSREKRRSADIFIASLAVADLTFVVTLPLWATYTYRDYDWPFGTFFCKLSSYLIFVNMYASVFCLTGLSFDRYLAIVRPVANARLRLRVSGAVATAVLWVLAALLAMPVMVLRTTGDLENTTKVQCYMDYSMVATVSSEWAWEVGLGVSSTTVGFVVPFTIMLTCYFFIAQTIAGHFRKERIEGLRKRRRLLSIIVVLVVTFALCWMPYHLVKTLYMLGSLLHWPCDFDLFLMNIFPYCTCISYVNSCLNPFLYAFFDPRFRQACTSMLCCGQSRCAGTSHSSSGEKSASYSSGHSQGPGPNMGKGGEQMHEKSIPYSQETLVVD
The series can be described thus: hAPJ Calcium flux assay. In kind it is cell-based. As to the method:
Chem-5 APJ stable cells (Millipore # HTS068C) were plated in 384-well format with 10,000 cells/well in 25 ul growth media, then grown 24 hours in a 37° C. tissue culture incubator. One hour before the assay, 25 ul/well FLIPR Calcium 4 dye (Molecular Devices R8142) with 2.5 mM probenecid was added, and cells were incubated one hour in a 37° C. tissue culture incubator. Bioconjugates were solubilized in HBSS, HEPES & 0.1% BSA buffer, and serially-diluted 10-fold, from 50 uM to 5 pM, in triplicate. FLIPR Tetra was used to add bioconjugates to the cells with dye (1:5, for final bioconjugate concentrations ranging from 10 uM to 1 pM). FLIPR dye inside the cells emitted fluorescence after binding to calcium, while fluorescence from outside the cells was masked. Fluorescence was measured using 470-495 excitation and 515-575 emission wavelengths on the FLIPR Tetra. Readings were done for 3 minutes total, beginning 10 seconds before the bioconjugate addition. Maximum-minimum values were calculated and plotted for each bioconjugate concentration, and GraphPad prism software was used to calculate EC50 values at the curve inflection points, for calcium flux stimulation by bioconjugates.

Series [1] is described as follows: Surrogate activity-based plasma stability assay. The series is classed as in vitro ADME. As to conditions: rat. An excerpt: Surrogate Activity-Based Plasma Stability Assay:
2) Calculate slope of value above and […]

Series [2] is described as follows: In vivo pharmacokinetic assessment via SC dosing. As to conditions: mouse, C57/B6 mice, subcutaneous dosing, plasma, read-out: t½ (converted). The procedure:
Protocols and Data for the In Vivo Pharmacokinetic Assessment Via SC Dosing. Formulation, Dosing and Sample Acquisition: […]
Example 1 and example 4 were dissolved to 0.1 mg/ml concentration in 30% (w/v) PEG300 and 5% (w/v) dextrose in PBS. C57/B6 mice (˜20 weeks of age) were dosed with dissolved compound by subcutaneous (SC) injection into the flank (n=4 per compound). Injection volume was 10 ml/kg. Blood samples were withdrawn from the saphenous vein at 3 and 6 hours post-dose, as well as at 1, 2, 4, 7 and 10 days post dose. Blood samples were immediately centrifuged at 4000×g for 10 min. Plasma supernatant (10 μL) was transferred to a 96-well plate and frozen at −80 C until analysis.
C57/B6J mice (˜22 weeks of age) were dosed with dissolved compound by SC injection (n=4). Blood samples were withdrawn from the tail vein at 15, 30, 60 and 120 minutes post injection. These were immediately centrifuged and then plasma supernatant was transferred to a 96-well plate and frozen at −80 C until analysis.
Preparation of Samples for Bioanalysis:
A pre-weighed sample of each compound (1-3 mg) was obtained and dissolved to 1 mg/ml in DMSO. These were diluted serially in mouse plasma (BioReclamation) to final concentrations of 10,000, 5,000, 1,000, 500, 100, 50, 10, 5, and 1 ng/ml to make standard curve for analysis.
Plasma samples from PK studies were thawed and diluted to 25 μL total volume by addition of mouse plasma.
25 μL aliquots of each sample and standard curve sample were arranged on a 96-well plate.
150 μL acetonitrile containing 100 ng/ml glyburide as internal standard was added to each sample and the samples vortexed for 30 seconds. Samples were then centrifuged at 4000×g for 10 minutes. 125 μL supernatant was then transferred to a fresh 96-well plate. 50 μL of water was added and mixed by vortexing for 30 seconds.
LC/MS Bioanalysis (Agilent 1290):
Samples (10 μL) were transferred to an HPLC using a CTC PAL autosampler. The LC column was ACE C18 30×2.1 mm, 3.0 μm bead. […]

[3] abbreviates: Chem-5 APJ stable cells, FLIPR calcium flux, read-out: hAPJ Ca^2+ Flux EC50.

Usually EC50 stands for the concentration needed to bring the measured effect to its halfway point. In the case of `CCCCCCCCCCCC(CCCCCCCCCCC(=O)O)(C(=O)O)C(=O)NCCOCCOCCOCCOCCOCCOCCOCCOCCOCCOCCOCCOCCOCCOCCOCCOCCOCCOCCOCCOCCOCCOCCOCCOCCC(=O)N[C@@H](CCC(N)=O)C(=O)N[C@@H](CCCNC(=N)N)C(=O)N1CCC[C@H]1C(=O)N[C@@H](CCCNC(=N)N)C(=O)N[C@@H](CC(C)C)C(=O)N[C@H]1CSSC[C@@H](C(=O)N[C@@H](Cc2ccccc2)C(=O)O)NC(=O)[C@H](CCCC)NC(=O)[C@@H]2CCCN2C(=O)CNC(=O)[C@H](CCCCN)NC(=O)[C@H](Cc2cnc[nH]2)NC1=O` (stereo partly drawn) [Example 1, Fatty Acid-Linker#1Q-R-P-R-L-C*-H-K-G-P-(Nle)-C*-F (C6-C12 Disulfide Bridge)] ({Malonyl(C11H23,(CH2)10COOH)-PEG24}-QRPRLCHKGP[Nle]CF-OH; disulfide 6-12), the EC50 at hAPJ (setting [3]) amounted to 111 nM. The values for the half-life in series [1] and in series [2] (1 mg/kg) were over 16.7 h and 43 h, respectively.
`CCCCCCCCCCCC(CCCCCCCCCCC(=O)O)(C(=O)O)C(=O)NCCOCCOCCOCCOCCOCCOCCOCCOCCOCCOCCOCCOCCC(=O)N[C@@H](CCC(N)=O)C(=O)N[C@@H](CCCNC(=N)N)C(=O)N1CCC[C@H]1C(=O)N[C@@H](CCCNC(=N)N)C(=O)N[C@@H](CC(C)C)C(=O)N[C@H]1CSSC[C@@H](C(=O)N[C@@H](Cc2ccccc2)C(=O)O)NC(=O)[C@H](CCCC)NC(=O)[C@@H]2CCCN2C(=O)CNC(=O)[C@H](CCCCN)NC(=O)[C@H](Cc2cnc[nH]2)NC1=O` (some centres unmarked) [Example 2] ({Malonyl(C11H23,(CH2)10COOH)-PEG12}-QRPRLCHKGP[Nle]CF-OH; disulfide 6-12): the concentration giving a half-maximal response (EC50) on hAPJ (setting [3]) came to 84.8 nM. This compound also returned a half-life in series [1] of over 16.7 h.
`CCCCCCCCCCCC(CCCCCCCCCCC(=O)O)(C(=O)O)C(=O)NCCOCCOCCOCCOCCC(=O)N[C@@H](CCC(N)=O)C(=O)N[C@@H](CCCNC(=N)N)C(=O)N1CCC[C@H]1C(=O)N[C@@H](CCCNC(=N)N)C(=O)N[C@@H](CC(C)C)C(=O)N[C@H]1CSSC[C@@H](C(=O)N[C@@H](Cc2ccccc2)C(=O)O)NC(=O)[C@H](CCCC)NC(=O)[C@@H]2CCCN2C(=O)CNC(=O)[C@H](CCCCN)NC(=O)[C@H](Cc2cnc[nH]2)NC1=O` (some centres unmarked) [Example 4] ({Malonyl(C11H23,(CH2)10COOH)-PEG4}-QRPRLCHKGP[Nle]CF-OH; disulfide 6-12): the EC50 at hAPJ (setting [3]) was 158 nM. The half-life in series [1] was over 16.7 h; in series [2] (1 mg/kg) it was 23 h.
Consider `CCCC[C@@H]1NC(=O)[C@@H]2CCCN2C(=O)CNC(=O)[C@H](CCCCN)NC(=O)[C@H](Cc2cnc[nH]2)NC(=O)[C@@H](NC(=O)[C@H](CC(C)C)NC(=O)[C@H](CCCNC(=N)N)NC(=O)[C@@H]2CCCN2C(=O)[C@H](CCCNC(=N)N)NC(=O)[C@@H]2CCC(=O)N2)CSSC[C@@H](C(=O)N[C@@H](Cc2ccccc2)C(=O)O)NC1=O` [pE-R-P-R-L-C*-H-K-G-P-Nle-C*-F-OH, reference compound] ([pGlu]RPRLCHKGP[Nle]CF-OH; disulfide 6-12), for which, at hAPJ, the EC50 worked out at 1 nM. In addition, the half-life in series [1] is 2.2 h; in series [2], 0.52 h.
